Laboratory results: patent publication US20220033734A1, “FABRIC CONDITIONER COMPOSITIONS” (Conopco, Inc., d/b/a UNILEVER, priority 2018, published 2022)

Test system: Gram-negative non-fermenting bacteria: B. cepacia, P. aeruginosa, Strenotrophomonas sp
Assay: Modified challenge test in fabric conditioner, Total Viable Count pour plate: Gram-negative non-fermenting bacteria
Format: cell-based
Settings: overall statement on the challenge tests of Tables 3 and 4
Description: Water was heated to ˜45° C., the Cetearyl alcohol was added followed by the minors. A premix of melted quaternary ammonium active was then added and mixed. The formulation was then cooled to ˜35° C. and any remaining minors added.
Itaconic acid, lactic acid and citric acid were purchased from Sigma-Aldrich. Samples of unpreserved fabric conditioner were dosed with itaconic acid, citric acid or lactic acid separately, according to Tables 3 and 4. Each dosed product was adjusted to pH 5 using 50% sodium hydroxide (Sigma-Aldrich). An unpreserved sample was kept as a control.
A modified challenge test method was performed on samples as defined in […]. The microbial compositions comprising the bacteria listed in Tables 2 and 3 were produced with an inoculum level of 5×10^7 CFU/G in sodium chloride.
The microbial compositions were added to each fabric conditioner formulation at a ratio of 1:10 (by weight) microbial composition to fabric conditioner formulation. […]
Both the inoculum level and the level of microorganism within each sample was quantified using a Total Viable Count (TVC) pour plate method after contact times as indicated in data tables. […] Visible colonies were counted with the aid of a Quebec Colony Counter and recorded for analysis against the challenge test criteria.

SMILES: C=C(CC(=O)O)C(=O)O [itaconic acid]
- Preservation performance compared with other systems: out performed citric acid, lactic acid and unpreserved systems
